Experimental data published in patent US20080132565A1, “Polycyclic Macrolactones” (priority 2003, published 2008).
Where two headings read alike, the source gives them in different places.

Assays:
[1] = physicochemical properties: solubility
[2] = test system: Arthrobacter aurescens DSM 20166; assay: agar diffusion test; assay type: cell-based; details: CM, 10 μl per filter disk
Procedure: (§1) The Gram-negative bacteria and fungi which were tested were insensitive to the abyssomicins.

[3] = test system: Streptomyces viridochromogenes Tü 57; assay: agar diffusion test; assay type: cell-based; details: CM, 10 μl per filter disk
Procedure: as §1

[4] = test system: Brevibacillus brevis DSM 30; assay: agar diffusion test; assay type: cell-based; details: 10 μl per filter disk
Procedure: as §1

[5] = test system: Rhodococcus erythropolis DSM 1069; assay: agar diffusion test; assay type: cell-based; details: 10 μl per filter disk
Procedure: as §1

[6] = test system: Staphylococcus aureus DSM 20231; assay: agar diffusion test; assay type: cell-based; details: CM, 10 μl per filter disk
Procedure: as §1

[7] = test system: Bacillus subtilis DSM 10; assay: agar diffusion test; assay type: cell-based; details: 10 μl per filter disk
Procedure: as §1

[8] = test system: Gram-positive bacteria; assay: agar diffusion test, activity spectrum; assay type: cell-based; details: Gram-positive bacteria tested
Procedure: as §1

[9] = test system: Rhodococcus erythropolis DSM 1069; assay: MIC dilution series test; assay type: cell-based; details: CM (complex medium); 2 ml test tube scale, shaker at 120 rpm
Procedure: (§2) The minimum inhibitory concentration (MIC) of abyssomicin C was determined in a dilution series test. As expected, the test organisms are substantially more sensitive to abyssomicin C in chemically defined medium.

[10] = test system: Staphylococcus aureus DSM 20231; assay: MIC dilution series test; assay type: cell-based; details: CM (complex medium); 2 ml test tube scale, shaker at 120 rpm
Procedure: as §2

[11] = test system: Bacillus subtilis DSM 10; assay: MIC dilution series test; assay type: cell-based; details: 2 ml test tube scale, shaker at 120 rpm
Procedure: as §2

CC1CC(C)/C(O)=C2/C(=O)OC34CC(C)C5OC23C(CC4C5O)C1=O (stereo not drawn) [abyssomicin D]
solubility ([1]; in methanol and DMSO): soluble

CC1CC(C)C2(O)CC(=NO2)C2C(O)C3OC4=C(C(=O)OC42CC3C)C1=O (stereo not drawn) [abyssomicin B]
solubility ([1]; in methanol and DMSO): soluble

abyssomicin C
inhibition zone diameter ([2]; 0.3 mg/ml): 10 mm
inhibition zone diameter ([2]; 1 mg/ml): 14 mm
inhibition zone diameter ([3]; 0.3 mg/ml): 9 mm
inhibition zone diameter ([3]; 1 mg/ml): 11 mm
inhibition zone diameter ([4]; CM, 0.1 mg/ml): 9 mm
inhibition zone diameter ([4]; CM, 0.3 mg/ml): 12 mm
inhibition zone diameter ([4]; CM, 1 mg/ml): 17 mm
inhibition zone diameter ([4]; MM, 0.1 mg/ml): 19 mm
inhibition zone diameter ([4]; MM, 0.3 mg/ml): 24 mm
inhibition zone diameter ([4]; MM, 1 mg/ml): 30 mm
inhibition zone diameter ([5]; CM (first line, r17), 0.1 mg/ml): 15 mm
inhibition zone diameter ([5]; CM (first line, r17), 0.3 mg/ml): 18 mm
inhibition zone diameter ([5]; CM (first line, r17), 1 mg/ml): 27 mm
inhibition zone diameter ([5]; CM (second line, r18), 0.1 mg/ml): 21 mm
inhibition zone diameter ([5]; CM (second line, r18), 0.3 mg/ml): 28 mm
inhibition zone diameter ([5]; CM (second line, r18), 1 mg/ml): 30 mm
inhibition zone diameter ([6]; 0.1 mg/ml): 9 mm
inhibition zone diameter ([6]; 0.3 mg/ml): 11 mm
inhibition zone diameter ([6]; 1 mg/ml): 19 mm
inhibition zone diameter ([7]; CM, 0.1 mg/ml): 10 mm
inhibition zone diameter ([7]; CM, 0.3 mg/ml): 12 mm
inhibition zone diameter ([7]; CM, 1 mg/ml): 16 mm
inhibition zone diameter ([7]; MM, 0.1 mg/ml): 14 mm
inhibition zone diameter ([7]; MM, 0.3 mg/ml): 19 mm
inhibition zone diameter ([7]; MM, 1 mg/ml): 26 mm
solubility [1]: soluble
antibiotic effect [8]: antibiotic effect
Minimum inhibitory concentration (MIC) [9]: 10 µg/mL
Minimum inhibitory concentration (MIC) [10]: 100 µg/mL
Minimum inhibitory concentration (MIC) ([11]; CM (complex medium)): 10 µg/mL
Minimum inhibitory concentration (MIC) ([11]; MM (chemically defined medium)): 0.1 µg/mL
